According to patent US11000033B2, “Ketone or oxime compound, and herbicide” (NISSAN CHEMICAL CORPORATION, priority 2014, dated 2021):

Columns and labels:
Format in all cases: in vivo
Lolium multiflorum Lam. = assay: Test Example 4: herbicidal effect by soil treatment (symbol K); conditions: application herbicide amount 320 g/ha
Outline: (§1)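 Seeds were sown in sterilized diluvial soil, covered with about 1.5 cm of soil, and the soil surface was sprayed with a water-diluted emulsion of the compound at a predetermined rate. Plants grew in a greenhouse at 25° C. to 30° C.; effects were scored visually 3 weeks after application.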

[1] = test system: Echinochloa crus-galli var. crus-galli; assay: Test Example 4: herbicidal effect by soil treatment (symbol H); conditions: application herbicide amount 320 g/ha
Outline: as §1

Galium spurium = assay: Test Example 5: herbicidal effect by foliage application, plastic box (symbol Q); conditions: 320 g/ha, 3 weeks after application
Outline: (§2)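 Post-emergence spray; diluvial soil (sterilized), ~1.5 cm seed cover; greenhouse 25–30° C; 14-day-old plants; water-diluted emulsion at predetermined dose; visual score at 3 wk post-treatment.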

[2] = test system: Echinochloa oryzacola Vasing.; assay: Test Example 2: herbicidal activity, application during weed generation in submerged conditions (symbol A); conditions: Table 23; application herbicide amount 320 g/ha; grade 0-5 by criteria of Test Example 1
Outline: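 Compound was applied as a water-diluted emulsion into the standing water of flooded pots (4 cm) once co-sown weeds reached one to two leaves. Greenhouse temperature was 25° C. to 30° C., soil was alluvial, and each species was rated visually after 3 weeks.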

rice = assay: Test Example 4: effect on crop by soil treatment (symbol b); conditions: application herbicide amount 320 g/ha
Outline: (§3)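 Plants are raised in a greenhouse (25° C. to 30° C.) from spot-sown seed, which sits under about 1.5 cm of sterilized diluvial soil in a box shared with weed species.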

corn = assay: Test Example 4: effect on crop by soil treatment (symbol c); conditions: application herbicide amount 320 g/ha
Outline: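 Sterilized diluvial soil, spot sowing, ~1.5 cm soil cover; greenhouse 25–30° C.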

Setaria viridis = assay: Test Example 5: herbicidal effect by foliage application, plastic box (symbol G); conditions: 320 g/ha, 3 weeks after application
Outline: as §2

Digitaria ciliaris [3] = assay: Test Example 4: herbicidal effect by soil treatment (symbol F); conditions: application herbicide amount 320 g/ha
Outline: as §1

wheat = assay: Test Example 4: effect on crop by soil treatment (symbol e); conditions: application herbicide amount 320 g/ha
Outline: as §3

[4] = test system: directly sowed rice plant; assay: Test Example 3: effect on crop by foliage application, Wagner pot (symbol b); conditions: application herbicide amount 320 g/ha
Outline: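 Wagner pot (1/10000 are), alluvial soil, submerged 0.1–0.5 cm; sown E. crus-galli var. crus-galli, L. chinensis, C. difformis, rice; greenhouse 25–30 °C.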

Apera spica-venti = assay: Test Example 5: herbicidal effect by foliage application, plastic box (symbol L); conditions: 320 g/ha, 3 weeks after application
Outline: as §2

Alopecurus myosuroides = assay: Test Example 5: herbicidal effect by foliage application, plastic box (symbol J); conditions: 320 g/ha, 3 weeks after application
Outline: as §2

Abutilon theophrasti = assay: Test Example 4: herbicidal effect by soil treatment (symbol M); conditions: application herbicide amount 320 g/ha
Outline: as §1

beet [5] = assay: Test Example 4: effect on crop by soil treatment (symbol f); conditions: application herbicide amount 320 g/ha
Outline: as §3

Digitaria ciliaris [6] = assay: Test Example 5: herbicidal effect by foliage application, plastic box (symbol F); conditions: 320 g/ha, 3 weeks after application
Outline: as §2

beet [7] = assay: Test Example 5: effect on crop by foliage application, plastic box (symbol f); conditions: 320 g/ha, 3 weeks after application
Outline: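 Foliage-application test plants come from spot sowing in sterilized diluvial soil under a soil layer of about 1.5 cm, grown at 25° C. to 30° C. in a greenhouse.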

Cyperus difformis = assay: Test Example 3: herbicidal effect by foliage application, Wagner pot (symbol E); conditions: application herbicide amount 320 g/ha
Outline: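 In a shallow-flooded alluvial soil system held at 25–30 °C, plants including rice grew for 14 days and were then sprayed over the foliage with emulsion diluted to a fixed herbicide amount. Visual rating followed at 3 weeks.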

Compound	K (Lolium multiflorum Lam.) herbicidal effect grade (Lolium multiflorum Lam.)	H (Echinochloa crus-galli var. crus-galli) herbicidal effect grade [1]	Q: Galium spurium, herbicidal effect grade (Galium spurium)	Herbicidal effect grade, A: Echinochloa oryzacola Vasing. [2]	b (directly sowed rice plant) effect on crop grade (rice)	c (corn) effect on crop grade (corn)	G: Setaria viridis, herbicidal effect grade (Setaria viridis)	F (Digitaria ciliaris) herbicidal effect grade (Digitaria ciliaris [3])	e (wheat) effect on crop grade (wheat)	effect on crop b (directly sowed rice plant), grade 0-5 [4]	L: Apera spica-venti, herbicidal effect grade (Apera spica-venti)	J: Alopecurus myosuroides, herbicidal effect grade (Alopecurus myosuroides)	M (Abutilon theophrasti) herbicidal effect grade (Abutilon theophrasti)	f (beet) effect on crop grade (beet [5])	F: Digitaria ciliaris, herbicidal effect grade (Digitaria ciliaris [6])	f: beet, effect on crop grade (beet [7])	herbicidal effect on E, grade 0-5 (Cyperus difformis)	other results
COCCOC1=C(c2c(C)cc(C)cc2C)C(=O)C(CC(C)=NOC)C1 (centres unmarked) [1-037]	0 (Herbicidal ratio of 5% or lower (almost no effect))	0 (Herbicidal ratio of 5% or lower (almost no effect))	0 (Herbicidal ratio of 5% or lower (almost no effect))	0 (Herbicidal ratio of 5% or lower (almost no effect))	0 (Herbicidal ratio of 5% or lower (almost no effect))	0 (Herbicidal ratio of 5% or lower (almost no effect))	0 (Herbicidal ratio of 5% or lower (almost no effect))	0 (Herbicidal ratio of 5% or lower (almost no effect))	0 (Herbicidal ratio of 5% or lower (almost no effect))	0 (Herbicidal ratio of 5% or lower (almost no effect))	0 (Herbicidal ratio of 5% or lower (almost no effect))	0 (Herbicidal ratio of 5% or lower (almost no effect))	0 (Herbicidal ratio of 5% or lower (almost no effect))	0 (Herbicidal ratio of 5% or lower (almost no effect))	0 (Herbicidal ratio of 5% or lower (almost no effect))	0 (Herbicidal ratio of 5% or lower (almost no effect))	0 (Herbicidal ratio of 5% or lower (almost no effect))	
CC(CC1CC(O)=C(c2c(C)cc(C)cc2C)C1=O)=NOCC(C)O (centres unmarked) [1-027]	5 (Herbicidal ratio of 90% or more (almost completely withered))	5 (Herbicidal ratio of 90% or more (almost completely withered))	3 (Herbicidal ratio of 40% or higher and lower than 70%)	4 (Herbicidal ratio of 70% or higher and lower than 90%)	5 (Herbicidal ratio of 90% or more (almost completely withered))	4 (Herbicidal ratio of 70% or higher and lower than 90%)	5 (Herbicidal ratio of 90% or more (almost completely withered))	5 (Herbicidal ratio of 90% or more (almost completely withered))	3 (Herbicidal ratio of 40% or higher and lower than 70%)	5 (Herbicidal ratio of 90% or more (almost completely withered))	5 (Herbicidal ratio of 90% or more (almost completely withered))	5 (Herbicidal ratio of 90% or more (almost completely withered))	0 (Herbicidal ratio of 5% or lower (almost no effect))	0 (Herbicidal ratio of 5% or lower (almost no effect))	5 (Herbicidal ratio of 90% or more (almost completely withered))	0 (Herbicidal ratio of 5% or lower (almost no effect))	5 (Herbicidal ratio of 90% or more (almost completely withered))	
CON=C(C)CC1CC(OC(=O)COc2cccc(C#N)c2)=C(c2c(C)cc(C)cc2C)C1=O (centres unmarked) [1-074]	5 (Herbicidal ratio of 90% or more (almost completely withered))	5 (Herbicidal ratio of 90% or more (almost completely withered))		5 (Herbicidal ratio of 90% or more (almost completely withered))	5 (Herbicidal ratio of 90% or more (almost completely withered))	4 (Herbicidal ratio of 70% or higher and lower than 90%)		5 (Herbicidal ratio of 90% or more (almost completely withered))	4 (Herbicidal ratio of 70% or higher and lower than 90%)	5 (Herbicidal ratio of 90% or more (almost completely withered))			5 (Herbicidal ratio of 90% or more (almost completely withered))	0 (Herbicidal ratio of 5% or lower (almost no effect))			5 (Herbicidal ratio of 90% or more (almost completely withered))	Q: Galium spurium, herbicidal effect (criteria 0-5) (Galium spurium): 1 (Herbicidal ratio of 5% or higher and lower than 20%); G: Setaria viridis, herbicidal effect (criteria 0-5) (Setaria viridis): 5 (Herbicidal ratio of 90% or more (almost completely withered)); L: Apera spica-venti, herbicidal effect (criteria 0-5) (Apera spica-venti): 5 (Herbicidal ratio of 90% or more (almost completely withered)); J: Alopecurus myosuroides, herbicidal effect (criteria 0-5) (Alopecurus myosuroides): 5 (Herbicidal ratio of 90% or more (almost completely withered)); F: Digitaria ciliaris, herbicidal effect (criteria 0-5) (Digitaria ciliaris [6]): 5 (Herbicidal ratio of 90% or more (almost completely withered)); f: beet, effect on crop (criteria 0-5) (beet [7]): 0 (Herbicidal ratio of 5% or lower (almost no effect))
CON=C(C)CC1CC(OCC#C[Si](C)(C)C)=C(c2c(C)cc(C)cc2C)C1=O (centres unmarked) [1-031]	0 (Herbicidal ratio of 5% or lower (almost no effect))	0 (Herbicidal ratio of 5% or lower (almost no effect))	0 (Herbicidal ratio of 5% or lower (almost no effect))	5 (Herbicidal ratio of 90% or more (almost completely withered))	0 (Herbicidal ratio of 5% or lower (almost no effect))	0 (Herbicidal ratio of 5% or lower (almost no effect))	1 (Herbicidal ratio of 5% or higher and lower than 20%)	0 (Herbicidal ratio of 5% or lower (almost no effect))	0 (Herbicidal ratio of 5% or lower (almost no effect))	5 (Herbicidal ratio of 90% or more (almost completely withered))	0 (Herbicidal ratio of 5% or lower (almost no effect))	3 (Herbicidal ratio of 40% or higher and lower than 70%)	0 (Herbicidal ratio of 5% or lower (almost no effect))	0 (Herbicidal ratio of 5% or lower (almost no effect))	1 (Herbicidal ratio of 5% or higher and lower than 20%)	0 (Herbicidal ratio of 5% or lower (almost no effect))	0 (Herbicidal ratio of 5% or lower (almost no effect))	
